#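 Briefly, cells in 96-well plates were exposed to five compound concentrations for 48 h, and endpoints were estimated by linear interpolation. Abbreviation: GI50, concentration required for 50% inhibition of growth.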 Activity calls are given as the source filed them. No stated cut-off is given here; in the data, active = GI50 up to about 1.1 µM and inactive = higher.
# Legend:
# Test in all cases: growth of human tumour cells (NCI), 48 h
# RPMI-8226 = system: RPMI-8226
# T47D = system: T47D
# SF-295 = system: SF-295
# HOP-62 = system: HOP-62
# OVCAR-3 = system: OVCAR-3
# CAKI-1 = system: CAKI-1
# SW-620 = system: SW-620
# HL-60 = system: HL-60
# DU-145 = system: DU-145
# A498 = system: A498
# HCT-116 = system: HCT-116
# UACC-257 = system: UACC-257
# SK-OV-3 = system: SK-OV-3
# MDA-MB-435 = system: MDA-MB-435
# MDA-MB-231 = system: MDA-MB-231
# OVCAR-5 = system: OVCAR-5
# OVCAR-8 = system: OVCAR-8
# Malme-3M = system: Malme-3M
# HOP-92 = system: HOP-92
# NCI-H23 = system: NCI-H23
SMILES,GI50 (RPMI-8226),GI50 (T47D),GI50 (SF-295),GI50 (HOP-62),GI50 (OVCAR-3),GI50 (CAKI-1),GI50 (SW-620),GI50 (HL-60),GI50 (DU-145),GI50 (A498),GI50 (HCT-116),GI50 (UACC-257),GI50 (SK-OV-3),GI50 (MDA-MB-435),GI50 (MDA-MB-231),GI50 (OVCAR-5),GI50 (OVCAR-8),GI50 (Malme-3M),GI50 (HOP-92),GI50 (NCI-H23)
COC(=O)C1=C2SCc3cccc(c3)CSC3=C(C(=O)OC)SC(=C(S2)S1)S3,> 100 µM (inactive),> 100 µM (inactive),> 100 µM (inactive),> 100 µM (inactive),> 100 µM (inactive),> 100 µM (inactive),> 100 µM (inactive),25.9 µM (inactive),> 100 µM (inactive),> 100 µM (inactive),> 100 µM (inactive),> 100 µM (inactive),> 100 µM (inactive),> 100 µM (inactive),24.7 µM (inactive),,,,,
CC(C)(C)Cc1cc(O)ccc1O,,60.5 µM (inactive),44 µM (inactive),> 100 µM (inactive),39.3 µM (inactive),> 100 µM (inactive),61.9 µM (inactive),6.73 µM (inactive),> 100 µM (inactive),> 100 µM (inactive),61.1 µM (inactive),33.3 µM (inactive),> 100 µM (inactive),39.1 µM (inactive),42.2 µM (inactive),> 100 µM (inactive),53 µM (inactive),> 100 µM (inactive),> 100 µM (inactive),77.3 µM (inactive)
Clc1ccc(/C=C/c2nc(-c3ccccc3)cn3c2nc2ccccc23)cc1Cl,41.9 µM (inactive),41.7 µM (inactive),,59.2 µM (inactive),31.9 µM (inactive),,41.6 µM (inactive),19.6 µM (inactive),> 100 µM (inactive),> 100 µM (inactive),27.7 µM (inactive),> 100 µM (inactive),> 100 µM (inactive),35.3 µM (inactive),> 100 µM (inactive),> 100 µM (inactive),,,70 µM (inactive),31.2 µM (inactive)
O=c1c2ccccc2nc(-c2cccc([N+](=O)[O-])c2)n1O,,58.5 µM (inactive),40.1 µM (inactive),49 µM (inactive),31.6 µM (inactive),40.7 µM (inactive),35.3 µM (inactive),1.64 µM (inactive),> 100 µM (inactive),> 40.7 µM (inactive),41.5 µM (inactive),50.7 µM (inactive),42.8 µM (inactive),41.5 µM (inactive),17.5 µM (inactive),66.7 µM (inactive),20.3 µM (inactive),> 80 µM (inactive),3.94 µM (inactive),50 µM (inactive)
COC12CCCN1c1ccn(Cc3ccccc3)c(=O)c1C2=O (stereo unspecified),,> 100 µM (inactive),> 100 µM (inactive),,> 100 µM (inactive),> 100 µM (inactive),> 100 µM (inactive),66.1 µM (inactive),> 100 µM (inactive),> 100 µM (inactive),> 100 µM (inactive),> 100 µM (inactive),> 100 µM (inactive),> 100 µM (inactive),> 100 µM (inactive),> 100 µM (inactive),> 100 µM (inactive),> 100 µM (inactive),> 100 µM (inactive),> 100 µM (inactive)
Cc1ccc2[nH]c(=O)c(-c3cnc(O)nn3)c(O)c2c1,6.24 µM (inactive),53.2 µM (inactive),60.7 µM (inactive),> 100 µM (inactive),58.1 µM (inactive),55.3 µM (inactive),> 100 µM (inactive),> 100 µM (inactive),> 100 µM (inactive),> 100 µM (inactive),32.7 µM (inactive),57.4 µM (inactive),> 100 µM (inactive),60.3 µM (inactive),> 100 µM (inactive),> 100 µM (inactive),> 100 µM (inactive),> 100 µM (inactive),,86.7 µM (inactive)
COc1cc(/C=C/C=C2\CCC/C(=C\C=C\c3ccc(O)c(OC)c3)C2=O)ccc1O,5.4 µM (inactive),8.32 µM (inactive),4.74 µM (inactive),17.3 µM (inactive),9.12 µM (inactive),7.23 µM (inactive),6.84 µM (inactive),7.13 µM (inactive),14.7 µM (inactive),,10.5 µM (inactive),12.1 µM (inactive),5.81 µM (inactive),9.57 µM (inactive),39.1 µM (inactive),22 µM (inactive),12.6 µM (inactive),10.6 µM (inactive),12 µM (inactive),11.7 µM (inactive)
CC(=O)OC1CC[C@]2(C)C3CC[C@@]4(C)C(CCC4[C@H](C)CCCC(C)C)[C@@H]3CCC2(Br)C1 (stereo partly specified),,14.1 µM (inactive),34.8 µM (inactive),> 50 µM (inactive),14.5 µM (inactive),9.1 µM (inactive),9.42 µM (inactive),9.59 µM (inactive),> 50 µM (inactive),8.13 µM (inactive),9.29 µM (inactive),31.7 µM (inactive),> 50 µM (inactive),8.83 µM (inactive),13.7 µM (inactive),24.2 µM (inactive),10.8 µM (inactive),10.9 µM (inactive),19.7 µM (inactive),13 µM (inactive)
COC(=O)[C@H](C)N1C(=O)N[C@@H](C(C)C)C1=O,> 100 µM (inactive),> 100 µM (inactive),> 100 µM (inactive),> 100 µM (inactive),> 100 µM (inactive),> 100 µM (inactive),> 100 µM (inactive),,> 100 µM (inactive),,> 100 µM (inactive),> 100 µM (inactive),> 100 µM (inactive),> 100 µM (inactive),> 100 µM (inactive),> 100 µM (inactive),> 100 µM (inactive),> 100 µM (inactive),> 100 µM (inactive),> 100 µM (inactive)
CCC(=O)OCc1ccc2oc(=O)c(C(=O)Oc3cncc(Cl)c3)cc2c1,> 100 µM (inactive),98.6 µM (inactive),> 100 µM (inactive),> 100 µM (inactive),> 100 µM (inactive),> 100 µM (inactive),> 100 µM (inactive),,> 100 µM (inactive),,80 µM (inactive),> 100 µM (inactive),> 100 µM (inactive),70 µM (inactive),> 100 µM (inactive),> 100 µM (inactive),> 100 µM (inactive),66.7 µM (inactive),63.2 µM (inactive),52.2 µM (inactive)
CN1CCN(Cc2ccccc2)CC1CC#N (stereo unspecified),> 100 µM (inactive),> 100 µM (inactive),> 100 µM (inactive),> 100 µM (inactive),> 100 µM (inactive),> 100 µM (inactive),> 100 µM (inactive),> 100 µM (inactive),> 100 µM (inactive),> 100 µM (inactive),> 100 µM (inactive),> 100 µM (inactive),> 100 µM (inactive),> 100 µM (inactive),> 100 µM (inactive),> 100 µM (inactive),> 100 µM (inactive),> 100 µM (inactive),,> 100 µM (inactive)
Cc1oc2nc1C(=O)NCc1nc(cs1)C(=O)N[C@H](C(C)C)c1nc(cs1)C(=O)N[C@H]2C,14.3 µM (inactive),28.5 µM (inactive),18.4 µM (inactive),85.1 µM (inactive),> 100 µM (inactive),44.9 µM (inactive),> 100 µM (inactive),,79.3 µM (inactive),> 100 µM (inactive),45.8 µM (inactive),> 100 µM (inactive),> 100 µM (inactive),> 100 µM (inactive),9.57 µM (inactive),> 100 µM (inactive),35.2 µM (inactive),> 100 µM (inactive),61.1 µM (inactive),> 100 µM (inactive)
C[C@]12CC[C@H]3[C@@H](CC=C4C[C@@H](N5CCCC5)CC[C@@]43C)[C@@H]1C/C(=C\c1ccc([N+](=O)[O-])cc1)[C@@H]2O,16.1 µM (inactive),20.7 µM (inactive),24.9 µM (inactive),17.9 µM (inactive),17 µM (inactive),13.3 µM (inactive),17.9 µM (inactive),,17.3 µM (inactive),15.3 µM (inactive),16.3 µM (inactive),16.4 µM (inactive),15.9 µM (inactive),16.9 µM (inactive),16.2 µM (inactive),,,16.5 µM (inactive),13 µM (inactive),19.7 µM (inactive)
O=C(Cn1c(=O)ccn(C2OC(CO)C(O)C2F)c1=O)c1ccc(F)cc1 (stereo unspecified),> 100 µM (inactive),> 100 µM (inactive),> 100 µM (inactive),> 100 µM (inactive),> 100 µM (inactive),> 100 µM (inactive),> 100 µM (inactive),> 100 µM (inactive),> 100 µM (inactive),,> 100 µM (inactive),> 100 µM (inactive),,> 100 µM (inactive),> 100 µM (inactive),> 100 µM (inactive),> 100 µM (inactive),> 100 µM (inactive),,> 100 µM (inactive)
CC1=CCS(=O)(=O)C1C(O)C1=C(C)CCCC1(C)C (stereo unspecified),14.3 µM (inactive),45.7 µM (inactive),22.2 µM (inactive),> 100 µM (inactive),99.8 µM (inactive),> 100 µM (inactive),> 100 µM (inactive),35.3 µM (inactive),> 100 µM (inactive),0.0395 µM (active),72.3 µM (inactive),58.9 µM (inactive),> 100 µM (inactive),63.4 µM (inactive),> 100 µM (inactive),> 100 µM (inactive),> 100 µM (inactive),60 µM (inactive),,> 100 µM (inactive)

# From ChEMBL document CHEMBL1201862, “PubChem BioAssay data set” (2004)
